ChEMBL document CHEMBL1135899, “Design, synthesis, and evaluation of opioid analogues with non-peptidic beta-turn scaffold: enkephalin and endomorphin mimetics” (J Med Chem, 2002)

Legend:
[1] = target: T1, Opioid receptor (Rattus norvegicus) (UniProt P33533+P34975+P33535); experiment: Inhibition of [3H]naloxone binding to opioid receptor in rat cerebral cortex at 1 uM; assay type: tissue-based
Opioid receptor = Opioid receptor (Rattus norvegicus, UniProt P33533+P34975+P33535); experiment: Inhibition of [3H]-Naloxone binding to opioid receptor in rat cerebral cortex; assay type: tissue-based
[2] = target: delta opioid receptor (Homo sapiens) (UniProt P41143); experiment: Displacement of [3H]DPDPE from human delta opioid receptor at 0.1 uM
Chain of delta opioid receptor (Homo sapiens) (P41143 whole entry, looked up): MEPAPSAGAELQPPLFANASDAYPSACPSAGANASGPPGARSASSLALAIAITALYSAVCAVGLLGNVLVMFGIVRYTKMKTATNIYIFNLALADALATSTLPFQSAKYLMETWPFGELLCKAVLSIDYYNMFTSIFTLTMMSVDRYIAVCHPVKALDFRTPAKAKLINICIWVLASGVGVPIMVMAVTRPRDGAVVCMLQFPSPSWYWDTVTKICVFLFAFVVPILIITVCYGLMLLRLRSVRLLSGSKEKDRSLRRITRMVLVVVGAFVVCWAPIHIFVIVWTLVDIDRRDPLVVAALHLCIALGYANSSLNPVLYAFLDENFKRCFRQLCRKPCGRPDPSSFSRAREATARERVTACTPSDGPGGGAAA

[3] = target: Kappa-type opioid receptor (Homo sapiens) (UniProt P41145); experiment: Ability to displace [3H]-U 69593 from human Opioid receptor kappa 1 at 0.1 uM
Chain of Kappa-type opioid receptor (Homo sapiens) (P41145 whole entry): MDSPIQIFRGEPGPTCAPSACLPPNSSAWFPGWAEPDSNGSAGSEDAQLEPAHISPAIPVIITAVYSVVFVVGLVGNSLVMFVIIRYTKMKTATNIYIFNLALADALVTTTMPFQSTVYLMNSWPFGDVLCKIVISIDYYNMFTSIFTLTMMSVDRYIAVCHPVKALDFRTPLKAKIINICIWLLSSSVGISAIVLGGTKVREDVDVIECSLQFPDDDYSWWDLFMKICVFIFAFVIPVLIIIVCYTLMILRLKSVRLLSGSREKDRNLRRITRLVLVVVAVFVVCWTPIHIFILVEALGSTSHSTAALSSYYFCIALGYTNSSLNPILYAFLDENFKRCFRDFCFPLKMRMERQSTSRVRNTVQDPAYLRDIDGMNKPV

[4] = target: Mu-type opioid receptor (Homo sapiens) (UniProt P35372); experiment: Ability to displace [3H]-DAMGO from human Opioid receptor mu 1 at 0.1 uM
Chain of Mu-type opioid receptor (Homo sapiens) (P35372 whole entry): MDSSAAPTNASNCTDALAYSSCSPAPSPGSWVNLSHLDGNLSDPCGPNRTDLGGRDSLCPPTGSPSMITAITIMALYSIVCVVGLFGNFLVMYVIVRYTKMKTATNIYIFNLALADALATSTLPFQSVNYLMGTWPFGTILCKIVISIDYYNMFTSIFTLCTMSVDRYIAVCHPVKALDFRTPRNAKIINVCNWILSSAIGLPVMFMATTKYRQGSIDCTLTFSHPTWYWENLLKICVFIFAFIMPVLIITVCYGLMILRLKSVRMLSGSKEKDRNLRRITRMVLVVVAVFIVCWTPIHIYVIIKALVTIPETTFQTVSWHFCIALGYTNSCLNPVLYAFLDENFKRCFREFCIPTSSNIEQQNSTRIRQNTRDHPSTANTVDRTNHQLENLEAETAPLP

[5] = target: T1, Opioid receptor (Rattus norvegicus); experiment: Inhibition of [3H]naloxone binding to opioid receptor in rat cerebral cortex at 0.1 uM; assay type: tissue-based
[6] = target: Mu-type opioid receptor (Homo sapiens) (UniProt P35372); experiment: Ability to displace [3H]DAMGO from human Opioid receptor mu 1 at 0.1 uM.

T1 sequence (P33533 whole entry, looked up): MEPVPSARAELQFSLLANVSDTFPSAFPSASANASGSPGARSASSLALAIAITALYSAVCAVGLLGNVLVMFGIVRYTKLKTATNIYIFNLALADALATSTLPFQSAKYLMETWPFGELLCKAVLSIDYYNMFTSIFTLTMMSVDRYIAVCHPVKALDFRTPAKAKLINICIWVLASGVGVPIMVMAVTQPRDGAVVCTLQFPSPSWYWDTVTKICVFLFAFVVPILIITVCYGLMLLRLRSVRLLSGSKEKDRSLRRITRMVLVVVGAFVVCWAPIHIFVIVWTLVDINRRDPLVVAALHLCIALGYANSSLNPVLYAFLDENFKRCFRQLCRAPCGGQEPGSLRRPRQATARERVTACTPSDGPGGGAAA
T1 sequence (P33535 whole entry, looked up): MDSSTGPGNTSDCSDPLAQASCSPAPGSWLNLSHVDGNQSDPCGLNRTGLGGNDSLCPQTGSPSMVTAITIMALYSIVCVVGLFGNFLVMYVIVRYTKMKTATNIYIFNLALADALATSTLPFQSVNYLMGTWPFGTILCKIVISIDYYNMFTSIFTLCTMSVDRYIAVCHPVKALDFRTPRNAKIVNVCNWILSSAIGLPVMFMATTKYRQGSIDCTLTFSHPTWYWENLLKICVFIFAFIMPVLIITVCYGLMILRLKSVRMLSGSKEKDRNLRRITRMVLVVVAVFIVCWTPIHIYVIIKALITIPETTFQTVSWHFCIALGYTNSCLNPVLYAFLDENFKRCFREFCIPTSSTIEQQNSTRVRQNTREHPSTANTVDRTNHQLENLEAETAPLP
T1 sequence (P34975 whole entry, looked up): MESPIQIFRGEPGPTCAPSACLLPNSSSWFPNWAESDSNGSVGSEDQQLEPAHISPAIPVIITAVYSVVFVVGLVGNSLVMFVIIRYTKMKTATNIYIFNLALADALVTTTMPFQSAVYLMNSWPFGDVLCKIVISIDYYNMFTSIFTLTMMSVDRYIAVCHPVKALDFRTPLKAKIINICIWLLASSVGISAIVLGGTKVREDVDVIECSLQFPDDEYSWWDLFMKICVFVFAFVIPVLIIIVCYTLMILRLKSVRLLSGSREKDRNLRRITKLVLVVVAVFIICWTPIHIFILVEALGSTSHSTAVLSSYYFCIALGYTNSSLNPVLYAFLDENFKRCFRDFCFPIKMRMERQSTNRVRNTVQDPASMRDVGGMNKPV

CCCCCNC(=O)[C@H](CCc1ccccc1)NC(=O)CCNC(=O)OCCc1ccc(O)cc1
inhibition [1]: < 10% | IC50 (Opioid receptor): > 1000 nM

CCCCCN1C[C@@H]2N(C(=O)OCCc3ccc(O)cc3)CCC(=O)N2[C@@H](CCc2ccccc2)C1=O
Selectivity [2]: < 10% | Selectivity [3]: < 10% | Selectivity [4]: 91% | inhibition [1]: 99% | inhibition [5]: 79% | IC50 (Opioid receptor): 27 nM

O=C1[C@H](Cc2ccccc2)N2C(=O)CCN(C(=O)OCCc3ccc(O)cc3)[C@H]2CN1CCc1ccccc1
inhibition [1]: 96% | IC50 (Opioid receptor): 80 nM

CCCCCN1C[C@@H]2N(C(=O)OCCc3ccc(O)cc3)CCC(=O)N2[C@@H](Cc2ccccc2)C1=O
inhibition [1]: 84% | IC50 (Opioid receptor): 149 nM

O=C1[C@H](CCc2ccccc2)N2C(=O)CCN(C(=O)OCCc3ccc(O)cc3)[C@H]2CN1CCc1ccccc1
Selectivity [6]: 101% | Selectivity [2]: < 10% | Selectivity [3]: < 10% | inhibition [5]: 91% | IC50 (Opioid receptor): 9 nM
